US11865098B1, “Methods and compositions for treating excessive sleepiness” (Axsome Malta Ltd., priority 2017, dated 2024)

Test system: patients with narcolepsy type 1 or type 2
Test: Safety and tolerability (TEAEs, discontinuations), 12-week phase 3 study in narcolepsy
Assay type: in vivo, human
Settings: for Anxiety, incidence % / Anxiety, incidence n / Any TEAE, incidence % / Any TEAE, incidence n / Constipation, incidence % / Constipation, incidence n / Decreased appetite, incidence % / Decreased appetite, incidence n / Diarrhea, incidence % / Diarrhea, incidence n / Discontinuations due to TEAEs, incidence % / Discontinuations due to TEAEs, incidence n / Dizziness, incidence % / Dizziness, incidence n / Dry mouth, incidence % / Dry mouth, incidence n / Dyspepsia, incidence % / Dyspepsia, incidence n / Fatigue, incidence n / Headache, incidence % / Headache, incidence n / Heart rate increased, incidence n / Influenza, incidence % / Influenza, incidence n / Insomnia, incidence % / Insomnia, incidence n / Nasopharyngitis, incidence % / Nasopharyngitis, incidence n / Nausea, incidence % / Nausea, incidence n / Serious TEAEs, incidence n / Upper respiratory tract infection, incidence % / Upper respiratory tract infection, incidence n / Weight Increased, incidence % / Weight Increased, incidence n / Weight decreased, incidence % / Weight decreased, incidence n / Fatigue, incidence % / Serious TEAEs, incidence % / Heart rate increased, incidence %: safety population
Method: The study was a 12-week, double-blind, randomized, placebo-controlled, parallel-group study. Patients were randomized (1:1:1:1) to receive placebo or APC 75, 150, or 300 mg; randomization was stratified by the presence or absence of cataplexy.
Co-primary endpoints were change from baseline to week 12 in MWT mean sleep latency and ESS score. The key secondary endpoint was the percentage of patients who reported improvement on the Patient Global Impression of Change (PGI-C) (Guy, ECDEU assessment manual for psychopharmacology, revised. US Department of Health, Education, and Welfare publication (ADM 76-338). Rockville, MD: National Institute of Mental Health; 1976) at week 12. Other secondary and exploratory endpoints included changes on function and quality-of-life and changes in the number of cataplexy attacks per week. Safety evaluation included adverse events, laboratory tests, and vital signs.

NC(=O)OC[C@H](N)Cc1ccccc1 [JZP-110, (R)-2-amino-3-phenylpropyl carbamate]
Discontinuation rate (75 mg): 16.9%
Anxiety, incidence % (75 mg): (1.7) %
Anxiety, incidence n (75 mg): 1
Any TEAE, incidence % (75 mg): (57.6) %
Any TEAE, incidence n (75 mg): 34
Constipation, incidence % (75 mg): (5.1) %
Constipation, incidence n (75 mg): 3
Decreased appetite, incidence % (75 mg): (8.5) %
Decreased appetite, incidence n (75 mg): 5
Diarrhea, incidence % (75 mg): (3.4) %
Diarrhea, incidence n (75 mg): 2
Discontinuations due to TEAEs, incidence % (75 mg): (1.7) %
Discontinuations due to TEAEs, incidence n (75 mg): 1
Dizziness, incidence % (75 mg): (3.4) %
Dizziness, incidence n (75 mg): 2
Dry mouth, incidence % (75 mg): (5.1) %
Dry mouth, incidence n (75 mg): 3
Dyspepsia, incidence % (75 mg): (1.7) %
Dyspepsia, incidence n (75 mg): 1
Fatigue, incidence n (75 mg): 0
Headache, incidence % (75 mg): (10.2) %
Headache, incidence n (75 mg): 6
Heart rate increased, incidence n (75 mg): 0
Influenza, incidence % (75 mg): (3.4) %
Influenza, incidence n (75 mg): 2
Insomnia, incidence % (75 mg): (3.4) %
Insomnia, incidence n (75 mg): 2
Nasopharyngitis, incidence % (75 mg): (8.5) %
Nasopharyngitis, incidence n (75 mg): 5
Nausea, incidence % (75 mg): (5.1) %
Nausea, incidence n (75 mg): 3
Serious TEAEs, incidence n (75 mg): 0
Upper respiratory tract infection, incidence % (75 mg): (1.7) %
Upper respiratory tract infection, incidence n (75 mg): 1
Weight Increased, incidence % (75 mg): (3.4) %
Weight Increased, incidence n (75 mg): 2
Weight decreased, incidence % (75 mg): (1.7) %
Weight decreased, incidence n (75 mg): 1
Discontinuation rate (150 mg): 13.6%
Serious TEAEs (events) (150 mg, one patient, deemed not related by the investigator): 2 serious TEAEs of non-cardiac chest pain and anxiety
Anxiety, incidence % (150 mg): (5.1) %
Anxiety, incidence n (150 mg): 3
Any TEAE, incidence % (150 mg): (79.7) %
Any TEAE, incidence n (150 mg): 47
Constipation, incidence % (150 mg): (1.7) %
Constipation, incidence n (150 mg): 1
Decreased appetite, incidence % (150 mg): (8.5) %
Decreased appetite, incidence n (150 mg): 5
Diarrhea, incidence % (150 mg): (5.1) %
Diarrhea, incidence n (150 mg): 3
Discontinuations due to TEAEs, incidence % (150 mg): (5.1) %
Discontinuations due to TEAEs, incidence n (150 mg): 3
Dizziness, incidence % (150 mg): (1.7) %
Dizziness, incidence n (150 mg): 1
Dry mouth, incidence % (150 mg): (6.8) %
Dry mouth, incidence n (150 mg): 4
Dyspepsia, incidence % (150 mg): (3.4) %
Dyspepsia, incidence n (150 mg): 2
Fatigue, incidence % (150 mg): (3.4) %
Fatigue, incidence n (150 mg): 2
Headache, incidence % (150 mg): (23.7) %
Headache, incidence n (150 mg): 14
Heart rate increased, incidence n (150 mg): 0
Influenza, incidence % (150 mg): (1.7) %
Influenza, incidence n (150 mg): 1
Insomnia, incidence n (150 mg): 0
Nasopharyngitis, incidence % (150 mg): (13.6) %
Nasopharyngitis, incidence n (150 mg): 8
Nausea, incidence % (150 mg): (10.2) %
Nausea, incidence n (150 mg): 6
Serious TEAEs, incidence % (150 mg): (1.7) %
Serious TEAEs, incidence n (150 mg): 1
Upper respiratory tract infection, incidence % (150 mg): (6.8) %
Upper respiratory tract infection, incidence n (150 mg): 4
Weight Increased, incidence n (150 mg): 0
Weight decreased, incidence % (150 mg): (1.7) %
Weight decreased, incidence n (150 mg): 1
Discontinuation rate (300 mg): 27.1%
Discontinuation due to adverse events (300 mg, n=5): 8.5%
Anxiety, incidence % (300 mg): (8.5) %
Anxiety, incidence n (300 mg): 5
Any TEAE, incidence % (300 mg): (67.8) %
Any TEAE, incidence n (300 mg): 40
Constipation, incidence n (300 mg): 0
Decreased appetite, incidence % (300 mg): (15.3) %
Decreased appetite, incidence n (300 mg): 9
Diarrhea, incidence % (300 mg): (5.1) %
Diarrhea, incidence n (300 mg): 3
Discontinuations due to TEAEs, incidence % (300 mg): (8.5) %
Discontinuations due to TEAEs, incidence n (300 mg): 5
Dizziness, incidence % (300 mg): (5.1) %
Dizziness, incidence n (300 mg): 3
Dry mouth, incidence % (300 mg): (10.2) %
Dry mouth, incidence n (300 mg): 6
Dyspepsia, incidence % (300 mg): (5.1) %
Dyspepsia, incidence n (300 mg): 3
Fatigue, incidence % (300 mg): (5.1) %
Fatigue, incidence n (300 mg): 3
Headache, incidence % (300 mg): (30.5) %
Headache, incidence n (300 mg): 18
Heart rate increased, incidence % (300 mg): (6.8) %
Heart rate increased, incidence n (300 mg): 4
Influenza, incidence % (300 mg): (1.7) %
Influenza, incidence n (300 mg): 1
Insomnia, incidence % (300 mg): (5.1) %
Insomnia, incidence n (300 mg): 3
Nasopharyngitis, incidence % (300 mg): (5.1) %
Nasopharyngitis, incidence n (300 mg): 3
Nausea, incidence % (300 mg): (16.9) %
Nausea, incidence n (300 mg): 10
Serious TEAEs, incidence n (300 mg): 0
Upper respiratory tract infection, incidence n (300 mg): 0
Weight Increased, incidence % (300 mg): (1.7) %
Weight Increased, incidence n (300 mg): 1
Weight decreased, incidence % (300 mg): (5.1) %
Weight decreased, incidence n (300 mg): 3
Discontinuations due to TEAEs compared with placebo (150 and 300 mg groups): greater than placebo
Anxiety, incidence % (All JZP-110): (5.1) %
Anxiety, incidence n (All JZP-110): 9
Any TEAE, incidence % (All JZP-110): (68.4) %
Any TEAE, incidence n (All JZP-110): 121
Constipation, incidence % (All JZP-110): (2.3) %
Constipation, incidence n (All JZP-110): 4
Decreased appetite, incidence % (All JZP-110): (10.7) %
Decreased appetite, incidence n (All JZP-110): 19
Diarrhea, incidence % (All JZP-110): (4.5) %
Diarrhea, incidence n (All JZP-110): 8
Discontinuations due to TEAEs, incidence % (All JZP-110): (5.1) %
Discontinuations due to TEAEs, incidence n (All JZP-110): 9
Dizziness, incidence % (All JZP-110): (3.4) %
Dizziness, incidence n (All JZP-110): 6
Dry mouth, incidence % (All JZP-110): (7.3) %
Dry mouth, incidence n (All JZP-110): 13
Dyspepsia, incidence % (All JZP-110): (3.4) %
Dyspepsia, incidence n (All JZP-110): 6
Fatigue, incidence % (All JZP-110): (2.8) %
Fatigue, incidence n (All JZP-110): 5
Headache, incidence % (All JZP-110): (21.5) %
Headache, incidence n (All JZP-110): 38
Heart rate increased, incidence % (All JZP-110): (2.3) %
Heart rate increased, incidence n (All JZP-110): 4
Influenza, incidence % (All JZP-110): (2.3) %
Influenza, incidence n (All JZP-110): 4
Insomnia, incidence % (All JZP-110): (2.8) %
Insomnia, incidence n (All JZP-110): 5
Nasopharyngitis, incidence % (All JZP-110): (9.0) %
Nasopharyngitis, incidence n (All JZP-110): 16
Nausea, incidence % (All JZP-110): (10.7) %
Nausea, incidence n (All JZP-110): 19
Serious TEAEs, incidence % (All JZP-110): (0.6) %
Serious TEAEs, incidence n (All JZP-110): 1
Upper respiratory tract infection, incidence % (All JZP-110): (2.8) %
Upper respiratory tract infection, incidence n (All JZP-110): 5
Weight Increased, incidence % (All JZP-110): (1.7) %
Weight Increased, incidence n (All JZP-110): 3
Weight decreased, incidence % (All JZP-110): (2.8) %
Weight decreased, incidence n (All JZP-110): 5
